Structures can show the parent of a compound that is named as a salt.

For 17 compounds, IC50 results are on record in patent US6703387B2, “Inhibitors of HPV E1 helicase enzyme” (Hoffmann-La Roche Inc., priority 2000, dated 2004).

T1 sequence (P04014 whole entry, the tested form may be a part): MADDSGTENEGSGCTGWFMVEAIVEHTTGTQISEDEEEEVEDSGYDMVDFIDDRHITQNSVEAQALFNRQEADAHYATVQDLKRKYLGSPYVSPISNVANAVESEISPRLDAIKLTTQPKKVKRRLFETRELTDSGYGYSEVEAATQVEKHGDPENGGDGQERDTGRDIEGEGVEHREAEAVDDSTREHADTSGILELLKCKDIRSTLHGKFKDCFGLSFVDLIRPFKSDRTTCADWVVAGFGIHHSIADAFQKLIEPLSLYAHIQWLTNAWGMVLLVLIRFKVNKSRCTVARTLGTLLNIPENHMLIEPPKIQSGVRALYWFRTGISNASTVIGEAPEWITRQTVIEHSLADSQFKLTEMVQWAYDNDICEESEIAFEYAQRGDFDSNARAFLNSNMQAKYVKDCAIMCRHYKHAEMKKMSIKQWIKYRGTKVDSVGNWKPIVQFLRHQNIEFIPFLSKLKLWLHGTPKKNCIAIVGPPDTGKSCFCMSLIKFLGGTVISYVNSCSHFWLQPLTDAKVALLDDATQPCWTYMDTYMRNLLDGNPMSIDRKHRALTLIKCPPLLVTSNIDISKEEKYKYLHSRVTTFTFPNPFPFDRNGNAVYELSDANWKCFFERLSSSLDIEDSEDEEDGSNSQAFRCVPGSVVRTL

The assay addresses T1, HPV(11) E1 helicase enzyme (MBP fusion protein), ATPase activity (Human papillomavirus 11, UniProt P04014).
T1 construct: made in house; host or cells: SF9 insect cells, baculovirus expression system
The assay is described as follows: E1 ATPase activity assay ([γ33P]ATP hydrolysis, charcoal separation). The conditions noted are these: 20 μM ATP, 1 hour at 37° C., pH 7.0, read-out: Activity (IC50, concentration of test compound which inhibits enzyme activity by 50%). It counts as biochemical. Here is the method: For assaying E1 ATPase activity the HPV E1 enzyme has been prepared and purified as follows:
The HPV(11) E1 used in this assay is expressed as a maltose binding protein (MBP) fusion protein from SF9 cells using a baculovirus expression system. Frozen pellets of these cells are thawed by adding the pellet directly into a buffer at 4 OC containing 50 mM Tris-HCl pH 7.5, 20 mM dithiothreitol (DTT), 1 mM EDTA, 600 mM NaCl, 20% glycerol and 3 “Complete” protease inhibitor tablets/50 ml (Boehringer Mannheim cat.no.1 697 498). The cell suspension is then sonicated for 3×10 seconds before centrifuging at 18000 rpm for 30 minutes to remove the cell debris. The clarified extract is then passed down a DE52 ion exchange column which is washed with a buffer containing 50 mM Tris-HCl pH 7.5, 2 mM DTT, 1 mM EDTA, 600 mM NaCl and 20% glycerol. The column flow through plus the first 10 mls of wash buffer are then passed down an amylose affinity column which binds MBP tagged proteins. This column is washed with 3 column bed volumes of the wash buffer before being eluted with wash buffer containing 10 mM maltose. The eluted protein peak containing purified HPV(11) E1 is then dialysed overnight against 2 L of buffer containing 20 mM Tris-HCl pH 7.5, 2 mM DTT, 20 mM NaCl and 20% glycerol. The dialyzed material is used in the assay.
E1 ATPase activity can be measured as follows:
The standard reaction contains 50 mM MOPs KOH pH 7.0, 500 μM MgCl2, 20 μM ATP, 50 mM NaCl, 40 μl of a suitably diluted enzyme extract and 10 μl of inhibitor in a final volume of 100 μl. The ATP contains 0.1 μCi [γ^33P]ATP per reaction. The enzyme diluent contains 50 mM MOPs KOH pH7.0 and 1 mg/ml BSA. The inhibitor is diluted to give a range of concentrations in neat DMSO. Reaction tubes are incubated for 1 hour at 37° C. (producing linear kinetics) after which the reaction is terminated by heat inactivation at 85° C. for 2 minutes. 500 μl 15% activated charcoal in PBS is then added to each reaction. The activated charcoal used is 100-400 mesh untreated powder (Sigma cat No C-5260); prior to use in the assay this is washed in PBS several times and allowed to settle out under gravity, any fine particles still in suspension being decanted off after each wash. The reactions are left on ice for 1 hour after which the charcoal is pelleted out by centrifugation at 14000 rpm for 10 minutes. The charcoal pellet contains unconverted [γ^33P]ATP, whilst any free inorganic ^33P, the reaction product, will remain in the supernatant. The amount of radioactivity present in 300 μl of supernatant is then measured by scintillation spectrophotometry.
The results can be calculated as follows:
The degree of inhibition at each inhibitor concentration is expressed as a percentage of the control reaction (100%) after subtracting a measured blank value, which represents the amount of free inorganic ^33P present in a reaction containing heat inactivated enzyme. An IC50 value (concentration of test compound which inhibits enzyme activity by 50%) is then calculated from a dose response curve of log10 inhibitor concentration against percentage of the control reaction.
`CN1CCN=C(/C=C/c2cccc(Oc3ccccc3)c2)c2ccccc21` [Example 3, (E)-2,3-Dihydro-1-methyl-5-(3-phenoxystyryl)-1H-1,4-benzodiazepine dihydrochloride]: the IC50 came to 2.4 µM.

In the case of `CN1CCN=C(/C=C/c2cnccc2-c2cccc(Br)c2)c2ccccc21` [Example 6, (E)-5-[2-[4-(3-Bromophenyl)-3-pyridyl]vinyl]-2,3-dihydro-1-methyl-1H-1,4-benzo-diazepine dihydrochloride], the IC50 turned out to be 4.2 µM. The figure for `CN1CCN=C(/C=C/c2ccc(Cl)c(Cl)c2)c2cccnc21` [Example 29, (E)-5-(3,4-Dichlorostyryl)-2,3-dihydro-1-methyl-1H-pyrido[2,3-e][1,4]diazepine hydrochloride (1:3)] is 3 µM; for `FC(F)(F)c1cccc2c1NCCN=C2/C=C/c1ccc(Cl)c(Cl)c1` [Example 38, (E)-5-(3,4-Dichlorostyryl)-9-(trifluoromethyl)-2,3-dihydro-1H-1,4-benzodiazepine dihydrochloride] it is 5.6 µM; for `CN1CCN=C(/C=C/c2cnccc2-c2cccc(Br)c2)c2ccc(Br)cc21` [Example 42, (E)-8-Bromo-5-[2-[4-(3-bromophenyl)-3-pyridyl]vinyl]-2,3-dihydro-1-methyl-1H-1,4-benzodiazepine dihydrochloride] it is 2.4 µM. On to `CN1CCN=C(/C=C/c2ccc(C#N)c(SCc3ccc(Cl)cc3)n2)c2ccc(Br)cc21` [Example 44, (E)-6-[2-(8-Bromo-2,3-dihydro-1-methyl-1H-1,4-benzodiazepin-5-yl)vinyl]-2-(4-chlorobenzylthio)-3-pyridinecarbonitrile dihydrochloride], for which the IC50 was 2.5 µM.

In the case of `Cc1cc(C)n(COc2cccc(/C=C/C3=NCCN(C)c4ccccc43)c2)n1` [Example 92, (E)-2,3-Dihydro-1-methyl-5-[3-[(3,5-dimethyl-1-pyrazolyl)methoxy]-styryl]-1H-1,4-benzodiazepine dihydrochloride], the IC50 is 19 µM. For `CN1CCN=C(/C=C/c2ccccc2Sc2ccc(Cl)cc2)c2ccccc21` [Example 121, (E)-5-[2-(4-Chlorophenylthio)styryl]-2,3-dihydro-1-methyl-1H-1,4-benzodiazepine dihydrochloride], the IC50 amounted to 1.6 µM. On to `CC(C)N1CCN=C(/C=C/c2ccc(Cl)c(Cl)c2)c2ccccc21` [Example 123, (E)-5-(3,4-Dichlorostyryl)-2,3-dihydro-1-isopropyl-1H-1,4-benzodiazepine dihydrochloride], for which the IC50 was found to be 2 µM. The value for `O=C(c1ccccc1)N1CCN=C(/C=C/c2ccc(Cl)c(Cl)c2)c2ccccc21` [Example 125, (E)-1-Benzoyl-5-(3,4-dichlorostyryl)-2,3-dihydro-1H-1,4-benzodiazepine hydrochloride] was 5.6 µM. `COC(=O)c1ccc(CN2CCN=C(/C=C/c3ccc(Cl)c(Cl)c3)c3ccccc32)cc1` [Example 127, Methyl (E)4-[[5-(3,4-dichlorostyryl)-2,3-dihydro-1H-1,4-benzodiazepin-1-yl]methyl]benzoate dihydrochloride]: the IC50 came to 2.2 µM. The value for `O=C(O)c1ccc(CN2CCN=C(/C=C/c3ccc(Cl)c(Cl)c3)c3ccccc32)cc1` [Example 132, (E)-4-[[5-(3,4-dichlorostyryl)-2,3-dihydro-1H-1,4-benzodiazepin-1-yl]methyl]benzoic acid dihydrochloride] was 4.4 µM; that for `O=C(O)c1cccc(CN2CCN=C(/C=C/c3ccc(Cl)c(Cl)c3)c3ccccc32)c1` [Example 133, (E)-3-[[5-(3,4-Dichlorostyryl)-2,3-dihydro-1H-14-benzodiazepin-1-yl]methyl]benzoic]acid hydrochloride] was 3.1 µM; that for `O=C(O)CN1CCN=C(/C=C/c2ccc(Cl)c(Cl)c2)c2ccccc21` [Example 137, (E)-5-(3,4-Dichlorostyryl)-2,3-dihydro-1H-1,4-benzodiazepine-1-acetic acid] was 20 µM. On to `CCOC(=O)c1ncn2c1CN=C(/C=C/c1ccc(Cl)c(Cl)c1)c1ccccc1-2` [Example 139, Ethyl (E)-6-(3,4-dichlorostyryl)-4H-imidazo[1,5-a]benzodiazepine-3-carboxylate], for which the IC50 was 20 µM.

Consider `CN1CCN=C(/C=C/c2ccc(Cl)c(Cl)c2)c2cc(NS(C)(=O)=O)ccc21` [Example 162, (E)-N-[5-(3,4-Dichlorostyryl)-2,3-dihydro-1-methyl-1H-1,4-benzodiazepin-7-yl]methanesulfonamide], for which the IC50 came out at 8.6 µM.

Regarding `CN1CCN=C(/C=C/c2ccc(Cl)c(Cl)c2)c2ccc(-c3cccs3)cc21` [Example 164, (E)-5-(3,4-Dichlorostyryl)-2,3-dihydro-1-methyl-8-(2-thienyl)-1H-1,4-benzodiazepine hydrochloride], the IC50 came to 12 µM.
